{"source": "paper PMC5362913", "about": "“A new class of inhibitors of the AraC family virulence regulator Vibrio cholerae ToxT” (Scientific Reports, 2017)", "key": {"[1]": {"tested_on": "V. cholerae classical strain O395", "test": "Autoagglutination assay of O395 cultures", "format": "cell-based, Vibrio cholerae"}, "tcpA-lacZ": {"tested_on": "tcpA-lacZ", "test": "β-galactosidase reporter assay of tcpA-lacZ transcriptional fusion", "format": "cell-based, Vibrio cholerae", "conditions": "5 μM and 0.5 μM"}, "ToxT [2]": {"molecular_target": "T1, ToxT (Vibrio cholerae serotype O1, UniProt A5F384)", "T1 construct": "made in house; host or cells: E. coli BL21-CodonPlus (DE3)-RIL", "T1 sequence (A5F384 1-276)": "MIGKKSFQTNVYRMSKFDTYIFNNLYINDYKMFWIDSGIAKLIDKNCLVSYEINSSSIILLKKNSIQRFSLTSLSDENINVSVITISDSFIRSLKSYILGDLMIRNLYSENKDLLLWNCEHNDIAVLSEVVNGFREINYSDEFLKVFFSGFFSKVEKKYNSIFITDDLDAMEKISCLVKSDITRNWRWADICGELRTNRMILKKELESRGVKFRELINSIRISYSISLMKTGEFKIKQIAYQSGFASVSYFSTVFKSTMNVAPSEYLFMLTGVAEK", "format": "biochemical", "conditions": "for inhibition of ToxT DNA-binding in dose-response EMSA, compared with virstatin: compounds 10, 1, 0.1 μM, virstatin 100, 10, 1, 0.1 μM"}, "ToxT [3]": {"molecular_target": "T1, ToxT", "test": "Competition STD NMR with virstatin as indicator", "format": "binding", "conditions": "20 μM ToxT, 100 μM virstatin; based on KD of virstatin and decrease in STD signal; read-out: calculated Ki", "method": "(§1) Virstatin was solubilized in DMSO-d6 and compounds 5a and 3b in DMSO, at working stock concentrations of 35.5 mM, 394 mM, and 50.5 mM, respectively. Purified ToxT in protein buffer (20 mM Tris, 1 mM EDTA, 320 mM NaCl, pH 7.5) was used at a final concentration of 20 μM. All samples contained 50 μM 3-(Trimethylsilyl)-1-propanesulfonic acid sodium salt (TSP) as an internal standard and 5% D2O. All NMR experiments were carried out on a Bruker Avance 600 MHz or 700 MHz spectrometer equipped with a TCI cryogenic probe. Samples were stored at 4 °C prior to acquisition.\nVirstatin was used as the STD indicator at a concentration of 100 μM. Compounds 5a and 3b were added at concentrations of 20–200 μM. STD spectra were obtained as above, with a saturation time of 3 seconds. The calculation of the competitive inhibition was as follows[60]:\nwhere CI is the concentration of inhibitor with unknown KD (compound 5a or 3b), CL is the concentration of ligand with known KD (virstatin), KD is that of virstatin, and i is the inhibition expressed as a fraction: [drawing 6] ."}, "ToxT [4]": {"molecular_target": "T1, ToxT", "test": "STD NMR determination of KD", "format": "binding", "method": "as §1\nKD determination followed the protocol outlined by Angulo et al.[57]. For on-resonance spectra, the protein was saturated at 500 Hz or 583.33 Hz for the 600 MHz and 700 MHz NMR spectrometers, respectively, for 1–4 seconds utilizing a train of 50 ms Gaussian pulses. For off-resonance spectra, the sample was irradiated at −2000 Hz. The total relaxation delay was 7 seconds. Data acquisition consisted of 128 scans and 32,768 points. The STD-effect was calculated by measuring the intensity of the virstatin aromatic proton peaks in the on- and off-resonance spectra:\nThe KD of virstatin was calculated using Michaelis-Menten kinetics. The STD-AF0 was plotted as a function of the ligand concentration to construct the binding (Langmuir) isotherm: […]"}}}
{"smiles": "CCCCCC/C=C\\CCCCCCCC(=O)O", "note": "[cis-palmitoleic acid, reference compound]", "values": [{"measurement": "autoagglutination of O395 cultures", "setting": "[1]; 0.5 μM and 0.05 μM", "value": "no effect"}, {"measurement": "inhibition of tcpA transcription (relative β-galactosidase activity of tcpA-lacZ)", "setting": "tcpA-lacZ", "value": "essentially no effect"}]}
{"smiles": "Cc1cccc2cccc(CCC(=O)O)c12", "note": "[4a]", "values": [{"measurement": "inhibition of ToxT DNA-binding in dose-response EMSA, compared with virstatin", "setting": "ToxT [2]", "value": "inhibited DNA-binding more strongly than virstatin"}, {"measurement": "autoagglutination of O395 cultures", "setting": "[1]; 50 nM", "value": "inhibited"}, {"measurement": "autoagglutination of O395 cultures", "setting": "[1]; 0.5 μM", "value": "completely abolished detectable autoagglutination"}]}
{"smiles": "Cc1cccc2cccc(/C=C/CC(=O)O)c12", "note": "[3b]", "values": [{"measurement": "inhibition of ToxT DNA-binding in dose-response EMSA, compared with virstatin", "setting": "ToxT [2]", "value": "inhibited DNA-binding more strongly than virstatin"}, {"measurement": "autoagglutination of O395 cultures", "setting": "[1]; 50 nM", "value": "inhibited"}, {"measurement": "autoagglutination of O395 cultures", "setting": "[1]; 0.5 μM", "value": "completely abolished detectable autoagglutination"}, {"measurement": "Ki", "setting": "ToxT [3]", "value": 10, "unit": "µM"}]}
{"smiles": "Cc1cccc2c1C(CCC(=O)O)CCC2", "note": "(stereo not shown) [5a]", "values": [{"measurement": "inhibition of ToxT DNA-binding in dose-response EMSA, compared with virstatin", "setting": "ToxT [2]", "value": "inhibited DNA-binding more strongly than virstatin"}, {"measurement": "autoagglutination of O395 cultures", "setting": "[1]; 50 nM", "value": "inhibited"}, {"measurement": "autoagglutination of O395 cultures", "setting": "[1]; 0.5 μM", "value": "completely abolished detectable autoagglutination"}, {"measurement": "Ki", "setting": "ToxT [3]", "value": 31, "unit": "µM"}]}
{"smiles": "O=C(O)CCCN1C(=O)c2cccc3cccc(c23)C1=O", "note": "[virstatin, reference compound]", "values": [{"measurement": "ToxT binding to tcpA promoter DNA (EMSA)", "setting": "ToxT [2]; 100 μM compound, 0.78 μM ToxT", "value": "prevented ToxT from binding DNA"}, {"measurement": "autoagglutination of O395 cultures", "setting": "[1]; 0.5 μM", "value": "did not"}, {"measurement": "Kd", "setting": "ToxT [4]; from STD spectra of aromatic protons Ha,b", "value": "483 ± 109", "unit": "µM"}, {"measurement": "Kd", "setting": "ToxT [4]; from STD spectra of aromatic protons He,f", "value": "331 ± 65", "unit": "µM"}]}
{"smiles": "Cc1cccc2cccc(CCCC(=O)O)c12", "note": "[4b]", "values": [{"measurement": "inhibition of ToxT DNA-binding in dose-response EMSA, compared with virstatin", "setting": "ToxT [2]", "value": "inhibited DNA-binding more strongly than virstatin"}, {"measurement": "autoagglutination of O395 cultures", "setting": "[1]; 50 nM", "value": "inhibited"}, {"measurement": "autoagglutination of O395 cultures", "setting": "[1]; 0.5 μM", "value": "completely abolished detectable autoagglutination"}]}
{"smiles": "CCCCCCCC/C=C\\CCCCCCCC(=O)O", "note": "[oleic acid, reference compound]", "values": [{"measurement": "autoagglutination of O395 cultures", "setting": "[1]; 0.5 μM and 0.05 μM", "value": "no effect"}, {"measurement": "inhibition of tcpA transcription (relative β-galactosidase activity of tcpA-lacZ)", "setting": "tcpA-lacZ", "value": "essentially no effect"}]}
